How the values were obtained:
[1] = system: B. subtilis spores; assay: Killing of B. subtilis spores by PAA; assay type: cell-based; conditions: 15 min RT
Description: In this Example, experiments conducted to determine the killing curve of peracetic acid (PAA) and PAA in conjunction with detergent (commercially available PUREX® [Dial] was used in this Example) for B. subtilis spores. In these experiments, the B. subtilis spores were prepared as known in the art (See e.g., Siccardi et al., J. Bacteriol., 121:13-19 [1975]). Assays were carried out in duplicate in 96-well, round bottomed microtiter plates (Costar) with peracetic acid (32 wt % in acetic acid; Aldrich). The PAA was serially diluted in either 50 mM KPO4 buffer, pH 7.1 (“Buffer”), or in a 1:500 dilution of Purex (original formula; Dial) in the same buffer (“Buffer+Det”) in a total volume of 50 μl. The amount of PAA added to the assay was 0, 0.4, 4 or 40 mM. A volume of 5 μl of the spore suspension, containing 10^9-10^10 spores, was then added to each well and the assay incubated for 15 min at RT. Ice cold LB (150 μl) (See e.g., Sambrook et al., “Molecular Cloning: A Laboratory Manual”, Second Edition (Cold Spring Harbor), [1989]) was then added to each well, mixed, and 100 μl transferred to a fresh 96-well plate. Serial dilutions of each solution were made (in a total volume of 100 μl/well). A volume of 5 μl of each dilution was spotted onto LA plates (Sambrook et al., supra), and incubated at 37° C. for 17-24 h. Colonies were counted and the % spore killing was determined relative to the respective controls (buffer alone or buffer+detergent, without peracid). The results are presented in Table 1, as an average of duplicates from one experiment. However, the experiment was done twice in duplicate with similar results.

[2] = system: S54V-MsAcT; assay: Enzymatic generation of PAA by S54V variant (ABTS assay); assay type: biochemical, M. smegmatis; conditions: for relative conversion rate to PAA for the three ester substrates: with S54V-MsAcT, same method as for PGDA
Description: In these experiments, methods known in the art were used to determine the concentration of PAA (See e.g., Pinkernell et al., Analyst, 122:567-571 [1997]). In this ABTS assay, 100 μl of the solution to be analyzed was added to 1 ml of 125 mM potassium citrate buffer, pH 5.0, containing 1.0 mM 3-ethylbenzthiazoline-6-sulfonic acid (ABTS) and 50 uM KI, and allowed to incubate at RT for 3 minutes. The absorbance was measured at 420 nm in a HP 8452A Diode Array Spectrophotomer and compared to a standard curve prepared using authentic standard. The enzymatic reactions to form PAA were initiated with addition of enzyme and conducted at RT. Aliquots were withdrawn from the reactions at the indicated times and analyzed for PAA concentration. The sodium percarbonate used in these experiments was obtained from Kemira and the hydrogen peroxide was obtained from EM Science.
A solution of 39 mM sodium percarbonate (sodium carbonate peroxyhydrate, Technical grade 85%, yielding 100 mM effective H2O2; Kemira) was prepared in 320 mM KPO4 pH 7.1. […] To compare the enzymatic production of PAA from prepared H2O2 (32 wt %, Aldrich) or H2O2 formed from percarbonate under identical pH conditions, two reactions were prepared. One reaction contained 100 mM H2O2 in 320 mM KPO4, pH 7.6, 100 mM 1,2-propylene glycol diacetate (Aldrich), and 2 ppm variant S54V. The absolute concentration of H2O2 was assumed from the value stated on the label and not confirmed by analysis. The second reaction contained 39 mM sodium percarbonate in 320 mM KPO4, pH 7.1, 100 mM 1,2-propylene glycol diacetate, and 2 ppm S54V. The reactions were initiated by the addition of the enzyme. Samples were withdrawn at the times indicated and the concentration of PAA determined as described in Example 1.
In order to study the use of different propyl alcohol acetate ester substrates, the generation of PAA was carried out using the same general method described above for PGDA, but using either propyl acetate or triacetin as the ester substrate. […]
In this Example, experiments to assess the amount of peracetic acid produced from glucose and propyleneglycol diacetate are described. […] Further samples were withdrawn at the times indicated in FIG. 2, and the concentration of PAA determined as described above. No PAA was detected before the addition of enzyme and approximately 9.5 mM PAA was produced from the 20 mM 1,2-propylene glycol diacetate and the H2O2 produced from the glucose/glucose oxidase reaction.
In these experiments, three reactions were prepared, consisting of 320 mM KPO4 pH 7.1, 100 mM 1,2-propylene glycol diacetate (Aldrich), and 100 mM sodium percarbonate. […] Samples were withdrawn at the times indicated in the Figure, and the concentration of PAA determined as described above.

[3] = system: B. subtilis spores; assay: MsAcT system generated PAA killing of B. subtilis spores in buffer or detergent; assay type: cell-based; conditions: single reaction components in 400 mM KPO4 pH 7.1: 2 ppm S54V variant, 39 mM percarbonate, 100 mM PGDA
Description: In this experiment, sodium percarbonate was used as the source of H2O2. The final solution contained: 100 mM 1,2-propylene glycol diacetate, 2 ppm S54V variant, 39 mM sodium percarbonate (Technical grade 85%; yielding 100 mM effective H2O2) in 320 mM KPO4 pH 7.1 in a total volume of 800 μl. This mix (yield 40 mM PAA) was serially diluted to give additional mixes that yielded 4.9, 9.9 and 20.5 mM PAA. A mix with only 400 mM KPO4 pH 7.1 was used to determine total spore counts in the absence of PAA. The mixes were allowed to incubate at room temperature for 3 min. A volume of 180 μl of each of the mixes was then dispensed into duplicate wells of a round-bottomed 96-well plate (Costar) that contained 20 μl of the spore suspension used in Example 1, to yield a total volume of 200 μl in each well. The liquid was gently pipetted 4-5 times to ensure mixing of the components. The mixes were incubated with the spores for a further 15 or 30 minutes at room temperature. At the 15 and 30 minute time points, 20 μl were removed from each of the wells, added to wells in a fresh 96-well plate and serially diluted in LB to 10^−7 in a total volume of 100 μl. A volume of 5 μl from each dilution of each spore mixture was spotted onto an LA plate, allowed to dry and then incubated overnight at 37° C. Also at the 15 and 30 min time points, an appropriate volume was removed from each well and diluted sufficiently in dH2O to yield a measurable amount of PAA using the ABTS assay on scale with a standard, as described in Example 1. The results of the spore killing are presented as an average of the duplicates.
The experiment was repeated exactly as described except that a 1:500 dilution of Purex in 320 mM KPO4 pH 7.1, was used in place of the buffer. The results are presented in Table 3 (average of duplicates). Controls included various reaction components in 400 mM KPO4 pH 7.1 buffer: 2 ppm S54V variant, 2 ppm S54V variant with 39 mM percarbonate, 100 mM 1,2-propylene glycol diacetate, 100 mM 1,2-propylene glycol diacetate with 39 mM sodium percarbonate, 39 mM sodium percarbonate. […]

CC(=O)OO [PAA, peracetic acid]
% Spore Killing ([1]; Buffer + Detergent, 0.4 mM PAA): 0.05%
Spores/ml ([1]; Buffer + Detergent, 0.4 mM PAA): 1.7 × 10^9 Spores/ml
% Spore Killing ([1]; Buffer + Detergent, 4 mM PAA): 86.4%
Spores/ml ([1]; Buffer + Detergent, 4 mM PAA): 2.4 × 10^8 Spores/ml
% Spore Killing ([1]; Buffer + Detergent, 40 mM PAA): 100%
Spores/ml ([1]; Buffer + Detergent, 40 mM PAA): 0 Spores/ml
% Spore Killing ([1]; Buffer, 0.4 mM PAA): 86.4%
Spores/ml ([1]; Buffer, 0.4 mM PAA): 2.4 × 10^8 Spores/ml
% Spore Killing ([1]; Buffer, 4 mM PAA): 90%
Spores/ml ([1]; Buffer, 4 mM PAA): 1.6 × 10^8 Spores/ml
% Spore Killing ([1]; Buffer, 40 mM PAA): 100%
Spores/ml ([1]; Buffer, 40 mM PAA): 0 Spores/ml

CCCOC(C)=O [propyl acetate]
relative conversion rate to PAA for the three ester substrates [2]: PGDA >triacetin >propyl acetate

O=C([O-])[O-].O=C([O-])[O-].OO.OO.OO.[Na+].[Na+].[Na+].[Na+] [sodium percarbonate]
spores/ml after a 30 min incubation [3]: 1×10^9 spores/ml

CC(=O)OCC(C)OC(C)=O (stereo not shown) [PGDA, 1,2-propylene glycol diacetate]
spores/ml after a 30 min incubation [3]: 5×10^9 spores/ml
relative conversion rate to PAA for the three ester substrates [2]: PGDA >triacetin >propyl acetate

B1: S54V variant: M. smegmatis acyl transferase variant comprising the S54V substitution (protein)
chain: MAKRILCFGDSLTWGWVPVEDGAPTERFAPDVRWTGVLAQQLGADFEVIEEGLVARTTNIDDPTDPRLNGASYLPSCLATHLPLDLVIIMLGTNDTKAYFRRTPLDIALGMSVLVTQVLTSAGGVGTTYPAPKVLVVSPPPLAPMPHPWFQLIFEGGEQKTTELARVYSALASFMKVPFFDAGSVISTDGVDGIHFTEANNRDLGVALAEQVRSLL
spores/ml after a 30 min incubation [3]: 5×10^9 spores/ml
PAA produced ([2]; 20 mM 1,2-propylene glycol diacetate, H2O2 from glucose/glucose oxidase, 2 ppm S54V variant, RT): approximately 9.5 mM
temperature up to which the enzyme system is functional ([2]; 2 ppm S54V variant, 100 mM PGDA, 100 mM sodium percarbonate, 21, 40, 60° C.): ≥ 60 °C

Reference: patent publication US20100189707A1, “Stable Enzymatic Peracid Generating Systems” (priority 2007, published 2010)
